From article PMC6199279, “Design of Peptoid-peptide Macrocycles to Inhibit the β-catenin TCF Interaction in Prostate Cancer” (Nature Communications, 2018) come the findings set out here.

This assay concerns TOP-Flash Wnt luciferase reporter. Put plainly: TOP-Flash Wnt luciferase reporter assay in LNCaP-abl cells. The class given is cell-based. An excerpt: Using a TOP-Flash Wnt luciferase reporter, we tested the 12 oligomers identified from in silico modeling for inhibitory activity (Fig. 2b). […] We also employed a 3 × -Androgen Response Element (ARE) luciferase reporter to measure the effect on AR activity. […] As additional controls, we obtained previously developed, commercially available Wnt inhibitors and tested them in the Wnt luciferase assay (Supplementary Fig. 5).
We next characterized the dose response curves for compound 13 in the Wnt and AR luciferase reporters. The linear version of 13 (linear 13: NH2-|N-mpp, N-dmp, N-ipp, N-Smpe, N-Smpe, D-Ala|-OH) was used as a control compound. […] To test direct binding, we pre-formed dynamic light scattering (DLS) with β-catenin in the presence of vehicle, compound 13, and α-cyclodextrin. […] HEK293 cells were transiently transfected with a plasmid expressing full length, myc-tagged TCF4. After 48 h treatment with either vehicle (DMSO) or 10 µM 13, cells were lysed and myc-TCF4 protein was immunoprecipitated.
LNCaP-abl and LNCaP-95 cells were cultured in indicator free RPMI 1640 media (Life) supplemented with 10% charcoal stripped FBS, 1% pennicillin/streptomycin, and 1% L-Glutamine. HEK-293 Cells were cultured in DMEM media (Life) supplemented with 10%FBS and 1% pennicillin/streptomycin. A549 and U2OS cells were cultured in RPMI 1640 media (Life) and McCoy’s 5 A modified media (Life), respectively, both supplemented with 10%FBS and 1% pennicillin/streptomycin. LNCaP-abl, and LNCaP-95 cell lines were generous gifts from Z. Culig (Innsbruck Medical University, Austria) and J. Isaacs (Johns Hopkins University, Baltimore, MD), respectively. Cell lines were authenticated by STR profiling (Genetica Cell Line Testing; Burlington, NC). A549 and U2OS were purchased from ATCC (product numbers CCL-185 and HTB-96). Cell lines were routinely screened for mycoplasma. Luciferase assays were conducted using stably transfected TOP-flash and 3xARE LNCaP-abl cell lines. For the Wnt pathway, TOP-Flash LNCaP-abl cells were treated with 1 nM siAPC (a 1:1:1 mix of Ambion Silencer Silect siAPC RNA, ID#s s1433, s1434, s1435) for 24 h and seeded into 384-well plates at 5000 cells/well, followed by 24 h of treatment with compound. For the AR-pathway, 3xARE LNCaP-abl cells were seeded into 384-well plates at 5000 cells per well, treated for 48 h with compound, with the addition of R1881 for the final 8 h. Both were measured using the ONE-Glo detection kit (Promega) and data is standardized to CellTiter-Fluor (Promega) viability readings to account for potential variations in well to well cell number. Control Wnt inhibitors were purchased from Sigma with the exception of PRI-724 which was purchased from Selleckchem. Co-immunoprecipitation was carried out using HEK293 cells transfected with either myc-TCF (addgene #32738) or myc-TCF dominant negative (addgene #32739) followed by 48 h of treatment with compound. Cells were lysed using Triton lysis buffer and 1 mg total protein was incubated overnight at 4 C with 40 µl anti-cMyc magnetic beads (Thermo). Total protein concentration in cell lysates were determined using Pierce Rapid Gold BCA Protein Assay Kit (Thermo). The beads were washed 3× with lysis buffer then boiled in 2X sample loading dye. SDS-PAGE and western blotting were performed using anti-Myc (CST 2276) and anti-β-catenin (CST 8480). Both antibodies were diluted in blocking buffer 1:1000 and incubated overnight at 4 C with the membrane. […]
On the technique in general: In a reporter assay the amount or activity of a reporter protein is the signal.

Molecules are shown by their SMILES. Numbered stars: 1 amine (or outer) side, 2 acyl side, 3 side chain; on linkers, the order of the positions; unused ones are H or OH. Square brackets hold non-standard residues; d marks the D form. Peptide text beside a SMILES is read from it. N(2-(2-PhOPh)Et)Gly = O=C(O)CNCCc1ccccc1Oc1ccccc1; Gly(N-3,5-(OMe)2-Ph) = COc1cc(NCC(=O)O)cc(OC)c1; X1 = COc1ccc([C@H](C)N(CC(=O)[*:2])[*:1])cc1; N((CH2)3OiPr)Gly = CC(C)OCCCNCC(=O)O

A word on the IC50: it is the midpoint of a concentration-inhibition curve. Regarding `COc1ccc([C@H](C)N2CC(=O)N[C@H](C)C(=O)N(CCc3ccccc3Oc3ccccc3)CC(=O)N(c3cc(OC)cc(OC)c3)CC(=O)N(CCCOC(C)C)CC(=O)N([C@@H](C)c3ccc(OC)cc3)CC2=O)cc1` [Compound 13] (cyclo([dA][N(2-(2-PhOPh)Et)Gly][Gly(N-3,5-(OMe)2-Ph)][N((CH2)3OiPr)Gly][X1][X1])), the “Wnt inhibitory activity (TOP-Flash luciferase)” value (10 µM compound, relative to vehicle) is given as “more effective”. Further, the half-maximal inhibitory concentration (IC50) (TOP-Flash LNCaP-abl cells, siAPC knockdown, 24 h compound, ± SD of three replicates, read-out: IC50 for Wnt luciferase inhibition) was found to be 0.105 µM.
